Assays:
[1] = Inhibition of Iks current in isolated guinea pig myocytes during a 1s voltage clamp step from -50 to +50 mV.; format: functional, cell-based; details: Cavia porcellus
[2] = target: T1, IKr current (KCNH2 potassium channel) (Homo sapiens, UniProt Q12809); test: Inhibition of Ikr current in isolated guinea pig myocytes during a 0.5 s voltage clamp step from -50 to -10 mV at 1000 nM; format: functional, cell-based, Cavia porcellus; details: target entry is the homologue from another species
[3] = target: T1, IKr current (KCNH2 potassium channel); test: Inhibition of Ikr current in isolated guinea pig myocytes during a 0.5 s voltage clamp step from -50 to -10 mV at 100 nM; format: functional, cell-based, Cavia porcellus; details: target entry is the homologue from another species
[4] = target: Voltage-gated inwardly rectifying potassium channel KCNH2 (Homo sapiens, UniProt Q12809); test: Inhibition of Ikr current in isolated guinea pig myocytes during a 0.5 s voltage clamp step from -50 to -10 mV.; format: functional, cell-based, Cavia porcellus; details: target entry is the homologue from another species
Chain of Voltage-gated inwardly rectifying potassium channel KCNH2 (Q12809 whole entry): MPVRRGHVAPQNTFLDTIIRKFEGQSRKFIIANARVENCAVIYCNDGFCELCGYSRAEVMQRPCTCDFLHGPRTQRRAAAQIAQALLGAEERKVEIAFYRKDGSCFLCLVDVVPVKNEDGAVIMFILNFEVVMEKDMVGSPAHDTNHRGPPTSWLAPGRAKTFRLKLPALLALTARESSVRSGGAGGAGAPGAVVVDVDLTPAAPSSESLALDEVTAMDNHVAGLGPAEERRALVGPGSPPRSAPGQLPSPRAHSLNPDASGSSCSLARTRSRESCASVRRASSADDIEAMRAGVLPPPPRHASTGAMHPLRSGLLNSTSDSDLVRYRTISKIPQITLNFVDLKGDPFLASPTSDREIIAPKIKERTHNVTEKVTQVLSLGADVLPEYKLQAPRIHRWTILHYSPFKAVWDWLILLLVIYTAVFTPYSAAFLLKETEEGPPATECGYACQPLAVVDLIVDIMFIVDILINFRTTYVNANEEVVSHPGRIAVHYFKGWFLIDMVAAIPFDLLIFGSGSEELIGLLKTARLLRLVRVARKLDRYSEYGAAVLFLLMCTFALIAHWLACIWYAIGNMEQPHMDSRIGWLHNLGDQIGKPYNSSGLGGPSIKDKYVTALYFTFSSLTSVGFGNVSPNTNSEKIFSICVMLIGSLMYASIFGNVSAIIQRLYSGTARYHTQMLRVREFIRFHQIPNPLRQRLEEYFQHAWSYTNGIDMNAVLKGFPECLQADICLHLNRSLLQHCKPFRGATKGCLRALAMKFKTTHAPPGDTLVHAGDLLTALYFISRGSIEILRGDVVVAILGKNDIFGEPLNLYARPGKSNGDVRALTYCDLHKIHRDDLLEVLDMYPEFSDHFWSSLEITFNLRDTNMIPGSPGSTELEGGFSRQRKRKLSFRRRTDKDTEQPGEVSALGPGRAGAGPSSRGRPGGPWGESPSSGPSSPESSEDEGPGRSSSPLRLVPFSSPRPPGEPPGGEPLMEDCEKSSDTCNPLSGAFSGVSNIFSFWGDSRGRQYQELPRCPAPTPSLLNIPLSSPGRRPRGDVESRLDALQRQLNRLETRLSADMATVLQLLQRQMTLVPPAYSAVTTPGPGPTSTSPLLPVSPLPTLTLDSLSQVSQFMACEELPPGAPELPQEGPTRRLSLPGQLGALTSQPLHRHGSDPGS

T1 sequence (Q12809 whole entry): as above

SMILES	IC50 [1]	inhibition at 1 µM [2]	other results
CN1C(=O)[C@H](NC(=O)Cc2ccc(C(F)(F)F)cc2C(F)(F)F)N=C(c2ccccc2)c2ccccc21	140 nM		
CN1C(=O)[C@H](NC(=O)Cc2ccccc2)N=C(c2ccccc2)c2ccccc21	300 nM	31%	
CN1C(=O)[C@H](NC(=O)CCc2ccccc2)N=C(c2ccccc2)c2ccccc21	200 nM	32%	
CC(C)N1C(=O)[C@H](NC(=O)CCC2CCCCC2)N=C(c2ccccc2)c2ccccc21	20 nM		
CC(C)N1C(=O)[C@H](NC(=O)c2cc(Cl)cc(Cl)c2)N=C(c2ccccc2)c2ccccc21	6 nM		
CN1C(=O)[C@H](NC(=O)c2cc(Cl)cc(Cl)c2)N=C(c2ccccc2)c2ccccc21	45 nM	17%	
O=C(N[C@@H]1N=C(c2ccccc2)c2ccccc2N(CC(F)(F)F)C1=O)c1cc(Cl)cc(Cl)c1	11 nM		inhibition at 0.1 µM [3]: 25%
O=C(Cc1ccc(Cl)cc1Cl)N[C@@H]1N=C(c2ccccc2)c2ccccc2N(CC(F)(F)F)C1=O	9 nM		
CN(C)CCN1C(=O)C(NC(=O)CCc2ccc(Cl)cc2Cl)N=C(c2ccccc2)c2ccccc21 (stereo not drawn)			IC50 [4]: 100 nM
CN1C(=O)[C@H](NC(=O)c2ccccc2)N=C(c2ccccc2)c2ccccc21	600 nM	23%	
CC(C)N1C(=O)[C@@H](NC(=O)c2cc(Cl)cc(Cl)c2)N=C(c2ccccc2)c2ccccc21		6%	
CN1C(=O)[C@H](NC(=O)/C=C/c2ccc(Cl)cc2Cl)N=C(c2ccccc2)c2ccccc21	6 nM		
CN1C(=O)[C@H](NC(=O)C(N)Cc2ccccc2)N=C(c2ccccc2)c2ccccc21 (stereo partly drawn)	2800 nM		
CC(=O)Nc1ccc(CCC(=O)N[C@@H]2N=C(c3ccccc3)c3ccccc3N(C)C2=O)cc1	> 10000 nM		
O=C(Cc1cc(Cl)cc(Cl)c1)N[C@@H]1N=C(c2ccccc2)c2ccccc2N(CC(F)(F)F)C1=O	30 nM		IC50 [4]: 4000 nM
CN1C(=O)[C@H](NC(=O)CCC2CCCCC2)N=C(c2ccccc2)c2ccccc21	10 nM		IC50 [4]: 1000 nM
O=C(Cc1ccc(C(F)(F)F)cc1C(F)(F)F)N[C@H]1N=C(c2ccccc2)c2ccccc2N(CC(F)(F)F)C1=O		35%	
CC(C)N1C(=O)[C@H](NC(=O)Cc2cc(Cl)cc(Cl)c2)N=C(c2ccccc2)c2ccccc21	10 nM		
CN1C(=O)[C@H](NC(=O)CCc2ccc(Cl)cc2Cl)N=C(c2ccccc2)c2ccccc21		31%	
Cc1cccc(NC(=O)N[C@@H]2N=C(c3ccccc3)c3ccccc3N(C)C2=O)c1 [L-365260]	214 nM		
O=C(Cc1ccc(C(F)(F)F)cc1C(F)(F)F)N[C@@H]1N=C(c2ccccc2)c2ccccc2N(CC(F)(F)F)C1=O [L-768673]	6 nM		

Source: ChEMBL document CHEMBL1130298, “Class III antiarrhythmic activity in vivo by selective blockade of the slowly activating cardiac delayed rectifier potassium current IKs by (R)-2-(2,4-trifluoromethyl)-N-[2-oxo-5-phenyl-1-(2,2,2-trifluoroethyl)- 2, 3-dihydro-1H-benzo[e][1,4]diazepin-3-yl]acetamide” (J Med Chem, 1997)
